The values that follow come from article PMC7354438 (Viruses, 2020).

Data set [1] can be described thus: Cytotoxicity in mock-infected Vero-E6 cells (CellTiter-Glo). The settings on record: African green monkey. (ATP-based viability assays read luminescence as a measure of living cells.)
Data set [2] deals with hCoV-19/Norway/Trondheim-E9/2020. Briefly: Drug test: viability of SARS-CoV-2-infected Vero-E6 cells (CellTiter-Glo). Set-up: AUC: unit not given beside the values. The data set is classed as cell-based.
[3] abbreviates: area under the dose-response curve of viability of virus-infected Vero-E6 cells, moi 0.1, 72 h, 7 concentrations, decimal comma.

Structures can show the parent of a compound that is named as a salt. Where two headings read alike, the source gives them in different places.

As usually defined, the CC50 is the concentration giving 50% cytotoxicity. What is called EC50 is the concentration needed to bring the measured effect to its halfway point. For `COC(=O)C[C@](O)(CCCC(C)(C)O)C(=O)O[C@@H]1C(OC)=C[C@]23CCCN2CCc2cc4c(cc2[C@H]13)OCO4` [Homoharringtonine], the CC50 at 72 h in data set [1] (mock-infected Vero-E6 cells) is 360 ± 600 nM. The same molecule had an EC50 in data set [2] (Severe acute respiratory syndrome coronavirus 2, Vero C1008, infected Vero-E6 cells, moi 0.1, 72 h, Mean ± SD, n = 3) of 30 ± 20 nM.
`CC[C@@H](C(=O)[C@@H](C)[C@@H](O)[C@H](C)[C@@H]1O[C@@H]([C@@H](CC)C(=O)O)CC[C@@H]1C)[C@H]1O[C@]2(C=C[C@@H](O)[C@]3(CC[C@@](C)([C@H]4CC[C@](O)(CC)[C@H](C)O4)O3)O2)[C@H](C)C[C@@H]1C` [Salinomycin]: the CC50 at 72 h in data set [1] came to 13900 ± 300 nM. Moreover, in data set [2] (Severe acute respiratory syndrome coronavirus 2, Vero C1008, 72 h), the EC50 came to 200 ± 100 nM.
Consider `O=c1c(-c2ccc(O)cc2)coc2cc(O[C@@H]3O[C@H](CO)[C@@H](O)[C@H](O)[C@H]3O)cc(O)c12` [Genistin], for which the AUC in data set [2] (setting [3]) is on record as 54,1.
Still for that read-out and setting: the same measure for `Cc1c(-c2ccc(-c3ccccc3F)cc2)nc2ccc(F)cc2c1C(=O)O` [Brequinar]: 260,54.
For `NCCCC(N)(C(=O)O)C(F)F` (stereo not shown) [DFMO (Difluoromethylomithine), Difluoromethylomithine], the AUC in data set [2] (72 h) is on record as 142,66.
Same read-out and setting: the result for `CC[C@@]1([C@@H]2O[C@@H]([C@H]3O[C@@](O)(CO)[C@H](C)C[C@@H]3C)C[C@@H]2C)CC[C@H]([C@]2(C)CC[C@]3(C[C@H](O)[C@@H](C)[C@@H]([C@@H](C)[C@@H](OC)[C@H](C)C(=O)O)O3)O2)O1` [Monensin] reads 254,31.
Consider `CNCCC(Oc1ccc(C(F)(F)F)cc1)c1ccccc1` (stereo not shown) [Fluoxetine], for which the AUC in data set [2] (setting [3]) is recorded as 104,37.
Consider `CCN(CC)CCOc1ccc2c(c1)C(=O)c1cc(OCCN(CC)CC)ccc1-2` [Tilorone (dihydrochloride), Tilorone], for which the AUC in data set [2] (setting [3]) is given as 83,72.
Same read-out and setting: the result for `O=C(/C=C\n1cnc(-c2cc(C(F)(F)F)cc(C(F)(F)F)c2)n1)NNc1ccccn1` [Verdinexor] reads 83,93; that for `O=C(Nc1ccc([N+](=O)[O-])cc1Cl)c1cc(Cl)ccc1O` [Niclosamide], 149,52.
Same read-out and setting: the result for `CCn1cc(C(=O)O)c(=O)c2cc(F)c(N3CCNCC3)nc21` [Enoxacin] reads 118,23.
Still for that read-out and setting: the same measure for `COc1ccc2nc([S@@+]([O-])Cc3ncc(C)c(OC)c3C)[nH]c2c1` [Esomeprazole]: 177,52.
`Nc1ncn([C@@H]2O[C@H](CO)[C@@H](O)[C@H]2O)c(=O)n1` [Azacytidine]: the AUC in data set [2] (72 h) is 228,06.
Regarding `CC(C)n1c(/C=C/C(O)CC(O)CC(=O)O)c(-c2ccc(F)cc2)c2ccccc21` (stereo not shown) [Fluvastatin], the AUC in data set [2] (setting [3]) is given as 154,14.
Same read-out and setting: the result for `Cc1cc(CCCOc2c(C)cc(-c3noc(C(F)(F)F)n3)cc2C)on1` [Pleconaril] reads 141,75.
Turning to `CCN(CC)C[C@@H](O)CNc1ccc(NC[C@H]2CO2)c2c1C(=O)c1ccccc1C2=O` [BDA-366], the AUC in data set [2] (72 h) is 174,3.
Regarding `N=C(N)c1ccc2cc(OC(=O)c3ccc(N=C(N)N)cc3)ccc2c1` [Nafamostat], the AUC in data set [2] (72 h) is given as 166,53.
As to `Nc1nc(Cl)nc2c1ncn2[C@@H]1O[C@H](CO)[C@@H](O)[C@@H]1F` [Clofarabine], in data set [2] (setting [3]), the AUC is given as 112,42.
On the same count and under the same terms, the same measure for `CC(C)c1nc(CN(C)C(=O)N[C@H](C(=O)N[C@@H](Cc2ccccc2)C[C@H](O)[C@H](Cc2ccccc2)NC(=O)OCc2cncs2)C(C)C)cs1` [Ritonavir]: 137,69.
Ivermectin: the AUC in data set [2] (72 h) is recorded as 66,08.
`COc1ccc2c(c1)c(CC(=O)O)c(C)n2C(=O)c1ccc(Cl)cc1` [Indomethacin]: the AUC in data set [2] (setting [3]) was 104,51.
For the molecule `CCCCOc1cc(C(=O)NCCN(CC)CC)c2ccccc2n1` [Dibucaine], the AUC in data set [2] (setting [3]) is reported as 214,34.
Still for that read-out and setting: the result for `CNC(=O)c1cc(Oc2ccc(NC(=O)Nc3ccc(Cl)c(C(F)(F)F)c3)c(F)c2)ccn1` [Regorafenib] reads 24,12.
On the same count and under the same terms, the same measure for `CCC(C)(C)C(=O)O[C@H]1C[C@@H](C)C=C2C=C[C@H](C)[C@H](CC[C@@H]3C[C@@H](O)CC(=O)O3)[C@H]21` [Simvastatin]: 163,03; for `COc1ccc2[nH]c([S+]([O-])Cc3ncc(C)c(OC)c3C)nc2c1` (stereo not shown) [Omeprazole]: 139,02.
The same measure, in the same setting: the result for `CC(C)[C@H](N)C(=O)OCCOCn1cnc2c(=O)[nH]c(N)nc21` [Valaciclovir] reads 134,61; that for `CC(=O)N[C@@H](CS)C(=O)O` [Acetylcysteine], 43,47; that for `O=C(O)[C@H]1C2CCC(CC2)[C@@H]1Nc1nc(-c2c[nH]c3ncc(F)cc23)ncc1F` [Pimodivir], 126,91.
As for `CN1CCC[C@H]1c1cccnc1` [nicotine], in data set [2], the AUC is 239 and the “rescue of cells from virus-mediated death” value is “rescued cells from virus-mediated death but altered the cell morphology”.
As for `Cc1oncc1C(=O)Nc1ccc(C(F)(F)F)cc1` [Leflunomide], the AUC in data set [2] (setting [3]) is 47,95.
Same read-out and setting: the result for `N=C(N)NC(=O)c1nc(Cl)c(N)nc1N` [Amiloride (EIPA)] reads 182,56.
For the molecule `CC(C)C[C@H]1C(=O)N2CCC[C@H]2[C@]2(O)O[C@](NC(=O)[C@@H]3C=C4c5cccc6[nH]c(Br)c(c56)C[C@H]4N(C)C3)(C(C)C)C(=O)N12.CS(=O)(=O)O` [Bromcriptine mesilate], the AUC in data set [2] (72 h) is recorded as 59,71.
In the case of `CO[C@@H]1[C@@H](OC(N)=O)[C@@H](O)[C@H](Oc2ccc3c(O)c(NC(=O)c4ccc(O)c(CC=C(C)C)c4)c(=O)oc3c2C)OC1(C)C` [Novobiocin], in data set [2] (setting [3]), the AUC is 100,73.
With `CCC(C)n1ncn(-c2ccc(N3CCN(c4ccc(OCC5COC(Cn6cncn6)(c6ccc(Cl)cc6Cl)O5)cc4)CC3)cc2)c1=O` (stereo not shown) [Itraconazole], in data set [2] (setting [3]), the AUC was 110,18.
`COc1ccc([C@@H]2Sc3ccccc3N(CCN(C)C)C(=O)[C@@H]2OC(C)=O)cc1` [Diltiazem]: the AUC in data set [2] (setting [3]) was 99,61.
On the same count and under the same terms, the same measure for `CC1=C(/C=C/C(C)=C/C=C/C(C)=C/C(=O)Nc2ccc(O)cc2)C(C)(C)CCC1` [Fenretinide (4-HPR), Fenretinide]: 137,9; for `Cc1nc(Nc2ncc(C(=O)Nc3c(C)cccc3Cl)s2)cc(N2CCN(CCO)CC2)n1` [Dasatinib]: 135,45; for `O=C1[C@H](CC[C@H](O)c2ccc(F)cc2)[C@@H](c2ccc(O)cc2)N1c1ccc(F)cc1` [Ezetimibe]: 138,39.
On the same count and under the same terms, the result for `O=c1cc(-c2ccc(O)c(O)c2)oc2cc(O)cc(O)c12` [Luteolin] reads 119,07; that for `CCCCCCCCCCCCCCCCOCCCOP(=O)(O)CO[C@H](CO)Cn1ccc(N)nc1=O` [Brincidofovir (CMX001), Brincidofovir], 126,49.
Same read-out and setting: the result for `CNC(=O)c1cc(Oc2ccc(NC(=O)Nc3ccc(Cl)c(C(F)(F)F)c3)cc2)ccn1` [Sorafenib (BAY 43-9006), Sorafenib] reads 33,12.
In the case of `CC(=O)O[C@H]1C[C@H](O[C@H]2[C@@H](O)C[C@H](O[C@H]3[C@@H](O)C[C@H](O[C@H]4CC[C@@]5(C)[C@H](CC[C@@H]6[C@@H]5C[C@@H](O)[C@]5(C)[C@@H](C7=CC(=O)OC7)CC[C@]65O)C4)O[C@@H]3C)O[C@@H]2C)O[C@H](C)[C@H]1O[C@@H]1O[C@H](CO)[C@@H](O)[C@H](O)[C@H]1O` [Lanatoside C], the AUC in data set [2] (72 h) is listed as 54,25.
On the same count and under the same terms, the result for `CCCCCCCCCCNCCN[C@@]1(C)C[C@H](O[C@H]2[C@H](Oc3c4cc5cc3Oc3ccc(cc3Cl)[C@@H](O)[C@@H](NC(=O)[C@@H](CC(C)C)NC)C(=O)N[C@@H](CC(N)=O)C(=O)N[C@H]5C(=O)N[C@H]3C(=O)N[C@H](C(=O)N[C@H](C(=O)O)c5cc(O)c(CNCP(=O)(O)O)c(O)c5-c5cc3ccc5O)[C@H](O)c3ccc(c(Cl)c3)O4)O[C@H](CO)[C@@H](O)[C@@H]2O)O[C@@H](C)[C@H]1O` [Telavancin] reads 139,65.
Take `CC[C@H]1OC(=O)[C@H](C)[C@@H](O[C@H]2C[C@@](C)(OC)[C@@H](O)[C@H](C)O2)[C@H](C)[C@@H](O[C@@H]2O[C@H](C)C[C@H](N(C)C)[C@H]2O)[C@](C)(O)C[C@@H](C)CN(C)[C@H](C)[C@@H](O)[C@]1(C)O` [Azithromycin]: the AUC in data set [2] (setting [3]) is 119,42.
Consider `CC[C@H](CO)Nc1nc(NCc2ccccc2)c2ncn(C(C)C)c2n1` [Roscovitine], for which, in data set [2] (72 h), the AUC was 137,97.
Regarding `O=C1O[C@H]([C@@H](O)CO)C(O)=C1O` [Ascorbic acid], the AUC in data set [2] (setting [3]) is recorded as 108,5.
Same read-out and setting: the same measure for `CC(=O)N[C@H]1[C@H]([C@H](O)[C@H](O)CO)OC(C(=O)O)=C[C@@H]1N=C(N)N` [Zanamivir]: 113,54.
As to `CO[C@@]1(NC(=O)C(C(=O)[O-])c2ccc(O)cc2)C(=O)N2C(C(=O)[O-])=C(CSc3nnnn3C)CO[C@@H]21.[Na+].[Na+]` (stereo partly shown) [Moxalactam sodium salt], in data set [2] (72 h), the AUC was 18,13.
Consider Chicoric acid, for which the AUC in data set [2] (72 h) is listed as 93,1.
For the molecule `CC(C)COCC(CN(Cc1ccccc1)c1ccccc1)N1CCCC1` (stereo not shown) [Bepridil], the AUC in data set [2] (setting [3]) is reported as 285,95.
Still for that read-out and setting: the same measure for `NC(=O)c1ncn([C@@H]2O[C@H](CO)[C@@H](O)[C@H]2O)n1` [Ribavirin]: 134,26.
Take `Cc1ccc(C(=O)Nc2ccc(S(=O)(=O)O)c3cc(S(=O)(=O)O)cc(S(=O)(=O)O)c23)cc1NC(=O)c1cccc(NC(=O)Nc2cccc(C(=O)Nc3cc(C(=O)Nc4ccc(S(=O)(=O)O)c5cc(S(=O)(=O)O)cc(S(=O)(=O)O)c45)ccc3C)c2)c1` [Suramin]: the AUC in data set [2] (72 h) was 94,57.
Still for that read-out and setting: the result for Teicoplanin reads 145,39; that for `C[C@H]1O[C@H](O[C@H]2[C@H](O)[C@@H](O)[C@@H](O)[C@H](O)[C@@H]2O)[C@@H](N)C[C@@H]1NC(=N)C(=O)O` [Kasugamycin], 88,55.
As for `CN(C)c1ccc(O)c2c1C[C@H]1C[C@H]3[C@H](N(C)C)C(O)=C(C(N)=O)C(=O)[C@@]3(O)C(O)=C1C2=O` [Minocycline], in data set [2] (setting [3]), the AUC is 119,14.
Still for that read-out and setting: the same measure for `O=C(O)P(=O)(O)O` [Foscarnet]: 127,26.
For the molecule `COc1ccc(CC(C)NCC(O)c2ccc(O)c(NC=O)c2)cc1` (stereo not shown) [Formoterol], the AUC in data set [2] (72 h) is reported as 203,77.
As to `O=C1c2c(O)ccc(O)c2C(=O)c2c(NCCNCCO)ccc(NCCNCCO)c21` [Mitoxantrone], the AUC in data set [2] (setting [3]) is 125,09.
